From US4855128A, “Saccharide inhibition of dental plaque” (priority 1988, dated 1989)
pIC50: −log10 of the molar value. Like-named read-outs stand apart in the source and are kept apart here.

Test system: A. viscosus Tl4V-S. sanguis 34 coaggregation
Test: Coaggregation assay: inhibition of A. viscosus Tl4V-S. sanguis 34 coaggregation
Assay type: cell-based
Settings: for pIC50: read-out: Concentration to effect 50% inhibition of coaggregation; for Rebound of coaggregation on increasing concentration: at concentrations above the 50% inhibition concentration; for Concentration to effect 50% inhibition of coaggregation: concentration in % (weight/volume basis); for Inhibition of coaggregation (in words): qualitative
Protocol: This Example describes an assay for determining the inhibition of coaggregation by various agents according to the invention and the results obtained thereby.
Streptococcus sanguis strain 34 (originally derived from human dental plaque), and Actinomyces viscosus Tl4V were grown in a medium containing the dialyzable portion of Trypticase and Yeast Extract, supplemented with salts and a carbon source, as follows: A concentrated stock solution (20×, to make 10 liters of growth medium) containing Trypticase Peptone (BBL, 170 grams) and Yeast Extract (40 grams) as prepared in a liter of distilled water. This solution was subsequently ultrafiltered in an Amicon model DC-2 hollow fiber ultrafiltration cell, using an HlP10-20 hollow fiber cartridge (molecular weight cut off of 10,000 daltons), and the filtrate (that material of <10,000 daltons molecular weight) saved. The material was concentrated to a final volume of approximately 100 ml, and then reconstituted to one liter, after which the procedure was repeated for a total of three cycles, saving the filtrates at each step. The filtrates were collected into a vessel chilled on ice, combined, and the total volume measured. This stock solution was distributed in aliquots sufficient to make one liter of medium, and stored at -20° C. until used.
To prepare the growth medium, the appropriate volume of the 10× stock Trypticase-Yeast Extract stock solution was thawed, and to it added (in grams per liter): NaCl, 5, and K2 HPO4, 2.5, and the volume adjusted to 1 liter with distilled water. The medium was sterilized by autoclaving. Where indicated, glucose was added as a carbon source to give a final concentration of 0.2%. Initially, this was done by aseptically adding filter-sterilized glucose solutions to the autoclaved medium. For later experiments, glucose was added to the growth medium prior to sterilization.
Streptococci were grown in medium containing 0.2% glucose. Starter cultures were prepared by inoculation from a frozen stock culture, and incubated overnight at 37° C. under aerobic (not anaerobic) conditions. This starter culture was used as a 0.5-1.0% inoculum to inoculate larger quantities of medium (100 ml-1 liter), which were subsequently incubated for 16 hours at 37° C. Growth conditions were similar for the actinomycete, except that they were grown under an anaerobic environment (10% hydrogen-5% carbon dioxide, and 85% nitrogen). The starter culture was incubated for 24-48 hours, but the larger cultures required 48 hours incubation.
After growth, the cells were collected by centrifugation (10,000 x g, 15 minutes, 4° C.) and washed three times in PBS (phosphate-buffered saline, 0.025 M, pH 8.0 containing 1.46g NaCl per liter). The cells were then suspended in PBS such that when the stock cell suspension was diluted 1:10, it would produce an Absorbance at 660 nm of between 0.22-0.24, equivalent to an initial Absorbance of 2.2-2.4. The cells were stored on ice for use during the day, but warmed to ambient temperature before initiation of coaggregation. Residual cells were stored for further use by resuspension in a solution of 50% glycerol in water, and stored at 4° C. On the day of use, the cells were then collected by centrifugation, washed twice with PBS, and the trubidity adjusted as described above.
Assays were performed in a final volume of 1.0 ml in 190×75 mm disposable culture tubes, in duplicate. Controls consisted of 0.8 ml of either cell suspension, and 0.2 ml PBS. The coaggregating mixtures contained 0.4 ml of each cell suspension, and PBS to make 1.0 ml. Inhibitors were added from stock solutions to give the desired final concentrations, and, where necessary, the salt concentrations adjusted using a double-strength (2X) PBS solution. The mixtures were mixed on a Vortex mixer for 10 seconds at a speed setting of 6, incubated at ambient temperature for 10 minutes, vortexed again, and allowed to stand for 2 hours. […]

[1] = average of two independent experiments

Row | Molecule | pIC50 (Actinomyces viscosus, 2 h) | Concentration to effect 50% inhibition of coaggregation [1] | further results
1 | OC[C@H]1O[C@@H](O[C@@H]2[C@@H](CO)OC(O)(CO)[C@H]2O)[C@H](O)[C@@H](O)[C@H]1O (mixture of isomers) [Lactulose, reference compound] | 1.46 | – | –
2 | OC[C@H]1OC(O)C[C@@H](O)[C@H]1O (stereo partly drawn) [2-deoxy-D-galactose, reference compound] | 1.70 | – | –
3 | C[C@H]1OC(O)[C@H](O)[C@@H](O)[C@H]1O (stereo partly drawn) [D-Fructose (6-deoxy-D-galactose), 6-deoxy-D-galactose, reference compound] | 1.70 | – | –
4 | O=C[C@H](O)[C@@H](O)[C@@H](O)[C@H](O)CO [Galactose, reference compound] | 1.66 | – | –
5 | N[C@H]1C(O)O[C@H](CO)[C@H](O)[C@@H]1O (stereo partly shown) [Galactoseamine, reference compound] | – | – | pIC50 (Table 1 carbohydrates, 2 hours, ambient temperature, average of independent experiments in duplicate (lactose n=13, galactose n=6)): 1.46
6 | O=C[C@H](O)[C@@H](O)[C@H](O)[C@H](O)CO [Glucose, reference compound] | < 1.00 | – | –
7 | O=C[C@H](O)[C@@H](O)[C@H](O)[C@H](O)C(=O)O [Glucuronic acid] | 1.82 | – | Rebound of coaggregation on increasing concentration: then rebounds
8 | O=C(O)[C@H](O)[C@@H](O)[C@H](O[C@@H]1O[C@H](CO)[C@H](O)[C@H](O)[C@H]1O)[C@H](O)CO [Lactobionic acid, 4-[beta-D-galactosido]-D-gluconic acid] | 2.40 to 2.52 | – | Rebound of coaggregation on increasing concentration: then rebounds; Rebound of coaggregation on increasing concentration (listed as lactobionic acid): rebound effect; Inhibition of coaggregation at the higher concentration (concentration increased up to 100 mM): 10%
9 | OC[C@H]1O[C@@H](O[C@H]2[C@H](O)[C@@H](O)C(O)O[C@@H]2CO)[C@H](O)[C@@H](O)[C@H]1O (stereo partly shown) [Lactose, reference compound] | 2.44 | – | –
10 | OC[C@H]1O[C@H](O[C@H]2[C@H](O)[C@@H](O)[C@H](O)O[C@@H]2CO)[C@H](O)[C@@H](O)[C@@H]1O [Maltose, reference compound] | < 1.00 | – | –
11 | O=C[C@@H](O)[C@@H](O)[C@H](O)[C@H](O)CO [Mannose, reference compound] | < 1.00 | – | –
12 | OC[C@H]1O[C@@](CO)(O[C@H]2O[C@H](CO)[C@@H](O)[C@H](O)[C@H]2O)[C@@H](O)[C@@H]1O [Sucrose, reference compound] | < 1.00 | – | –
13 | OC[C@H]1O[C@H](O[C@H]2O[C@H](CO)[C@@H](O)[C@H](O)[C@H]2O)[C@H](O)[C@@H](O)[C@@H]1O [Trehalose, reference compound] | < 1.00 | – | –
14 | Agar [reference compound] | – | > 0.2% | Inhibition of coaggregation (in words): did not demonstrate inhibition
15 | Agarose [reference compound] | – | > 0.2% | Inhibition of coaggregation (in words): did not demonstrate inhibition
16 | Chondroitin sulfate | – | 4% | Inhibition of coaggregation at 4% (at 4%): ~50%; Inhibition of coaggregation (in words): substantial inhibition
17 | Guar gum | – | 0.15% | –
18 | Pectin | – | 0.8% | Inhibition of coaggregation at 0.8% (at 0.8%): ~50%; Inhibition of coaggregation (in words): substantial inhibition
19 | Polygalacturonic acid | – | 0.1% | –
20 | Sodium alginate | – | – | Inhibition of coaggregation at 0.5% (at 0.5%, average of two independent experiments): 32%; Inhibition of coaggregation (in words): substantial inhibition
21 | Soluble starch [reference compound] | – | – | Inhibition of coaggregation at 1.0% (at 1.0%, average of two independent experiments): 8%; Inhibition of coaggregation (in words): poor inhibition
22 | Xanthan gum | – | 0.05% | –
